Laboratory results as given in PMC6562471 (Cancers, 2019).

Tests used:
A549 cells [1] = experiment: Cell viability (SRB assay), A549; type: cell-based, human
Description: (§4) Cell viability assay was performed using SRB assay as described previously [22].

NCI-H1975 cells [2] = experiment: Cell viability (SRB assay), NCI-H1975; type: cell-based, human
Description: as §4

[3] = Cell viability (SRB assay), normal MRC-5; type: cell-based; conditions: human, normal cell line
Description: as §4

c-Met = target: T1, c-Met (Homo sapiens, UniProt P08581); experiment: c-Met kinase activity assay (Met Kinase Assay/Inhibitor Screening Kit); type: biochemical; conditions: cell-free kinase activity
T1 construct: purchased Abnova KA0055

A549 cells [4] = experiment: Annexin V-FITC/PI apoptosis assay, A549; type: cell-based, human; conditions: A549, 0.4 μM, 48 h; control 6.09%
Description: (§1) Annexin FITC/PI assay was performed as described previously. Cell apoptosis was evaluated using Annexin V FITC/PI apoptosis detection kit (BD Biosciences, San Jose, CA, USA) according to the manufacturer’s instruction. […] Wash the cells with cold PBS buffer before staining with 5 μL of Annexin V-FITC and 5 μL of propidium iodide in the 500 μL 1× binding buffer. Finally, the stained cells were incubated for 15 min at room temperature in the dark before analyzing with FACS Calibur flow cytometer, (Becton Dickinson, San Jose, CA, USA).

NCI-H1975 cells [5] = experiment: Annexin V-FITC/PI apoptosis assay, NCI-H1975; type: cell-based, human; conditions: NCI-H1975, 0.4 μM, 48 h; control 4.15%
Description: as §1

A549 xenograft = experiment: A549 nude mouse xenograft model; type: in vivo
Description: (§2) All animal experiments were followed the guidelines approved by the Seoul National University Institutional Animal Care and Use Committee (IACUC permission number SNU-170103-2-1). […]. Drug treatment started when their tumor volumes reached to 80–100 mm^3. […]. Body weight and tumor size were measured three times per week. The tumor size was calculated according to the formula V = 0.5 × length × width^2.

NCI-H1975 xenograft = experiment: NCI-H1975 nude mouse xenograft model; type: in vivo
Description: as §2

[6] = Pharmacokinetic study in male ICR mice; type: in vivo; conditions: mouse, plasma, po 10 mg/kg
Description: The male ICR mice (25–30 g, 7–8 weeks of age) were purchased from Koatech Co. (Pyeontak, Kyonggi-do, Korea). Animals were fed with free access to standard chow diet and water. All animal use and care followed the guidelines approved by the Institutional Animal Care and Use Committee of Flow Sciences.INC. (Approval No.: NDDC PK 2018 076 01-DFX117-(4364)). Animals were acclimatized for 1 week at of 23–25 °C temperature, 40–70% relative humidity and 12 h light/12 h dark cycle before study. […] Approximately 80 µL of blood samples were collected into BD Microtainer plasma separator tubes at times 0.25, 0.5, 1.0, 2.0, 4.0, 6.0 and 8.0 h through the saphenous vein over […] post dosing. Blood samples were centrifuged at 15,000 rpm for 5 min and stored in a freezer until analysis. Protein precipitation was conducted on 15 µL of plasma samples using three volumes of acetonitrile containing carbamazepine as an internal analytical standard. After centrifugation, the supernatant was analyzed on a Nexera XR system (Shimadzu, Japan) system coupled with TSQ vantage triple quadruple (Thermo Fisher Scientific, Waltham, MA, USA) system. Chromatographic separation was performed on a Kinetex XB-C18 column (2.1 × 100 mm, 2.6 μm, particle size; Phenomenex, CA, USA) running a linear gradient of solvent A (0.1% formic acid in deionized water) and B (0.1% formic acid in acetonitrile). Detection of the analyte ions was performed in a positive MRM mode, monitoring the following precursor >product ion transitions: m/z 573.1 > 417.8. Analytical data were processed using MassHunter B04.01 (Agilent Korea, Seoul, Korea). Pharmacokinetic parameters were calculated via non-compartmental analysis of the plasma concentration-time profiles using PK Solver.

phospho-Met = experiment: Phospho-receptor tyrosine kinase array, A549; type: cell-based, human; conditions: A549 cells, 0.2 μM
Description: Phosphorylated RTKs were measured with the Human Phospho-RTK Array Kit (ARY001B) from R&D Systems (Minneapolis, MN, USA) according to the manufacturer’s instructions.

A549 cells [7] = experiment: Colony formation, A549; type: cell-based, human; conditions: A549, 72 h treatment then 10 days culture
From the text: (§3) The cells were then washed once with PBS and continue to culture with full-growth medium for 10 days, change the culture medium to fresh ones every three days. Cells were stained with 0.1% crystal violet after fixing with 100% methanol.

NCI-H1975 cells [8] = experiment: Colony formation, NCI-H1975; type: cell-based, human; conditions: NCI-H1975, 72 h treatment then 10 days culture
From the text: as §3

T1 sequence (P08581 25-1390): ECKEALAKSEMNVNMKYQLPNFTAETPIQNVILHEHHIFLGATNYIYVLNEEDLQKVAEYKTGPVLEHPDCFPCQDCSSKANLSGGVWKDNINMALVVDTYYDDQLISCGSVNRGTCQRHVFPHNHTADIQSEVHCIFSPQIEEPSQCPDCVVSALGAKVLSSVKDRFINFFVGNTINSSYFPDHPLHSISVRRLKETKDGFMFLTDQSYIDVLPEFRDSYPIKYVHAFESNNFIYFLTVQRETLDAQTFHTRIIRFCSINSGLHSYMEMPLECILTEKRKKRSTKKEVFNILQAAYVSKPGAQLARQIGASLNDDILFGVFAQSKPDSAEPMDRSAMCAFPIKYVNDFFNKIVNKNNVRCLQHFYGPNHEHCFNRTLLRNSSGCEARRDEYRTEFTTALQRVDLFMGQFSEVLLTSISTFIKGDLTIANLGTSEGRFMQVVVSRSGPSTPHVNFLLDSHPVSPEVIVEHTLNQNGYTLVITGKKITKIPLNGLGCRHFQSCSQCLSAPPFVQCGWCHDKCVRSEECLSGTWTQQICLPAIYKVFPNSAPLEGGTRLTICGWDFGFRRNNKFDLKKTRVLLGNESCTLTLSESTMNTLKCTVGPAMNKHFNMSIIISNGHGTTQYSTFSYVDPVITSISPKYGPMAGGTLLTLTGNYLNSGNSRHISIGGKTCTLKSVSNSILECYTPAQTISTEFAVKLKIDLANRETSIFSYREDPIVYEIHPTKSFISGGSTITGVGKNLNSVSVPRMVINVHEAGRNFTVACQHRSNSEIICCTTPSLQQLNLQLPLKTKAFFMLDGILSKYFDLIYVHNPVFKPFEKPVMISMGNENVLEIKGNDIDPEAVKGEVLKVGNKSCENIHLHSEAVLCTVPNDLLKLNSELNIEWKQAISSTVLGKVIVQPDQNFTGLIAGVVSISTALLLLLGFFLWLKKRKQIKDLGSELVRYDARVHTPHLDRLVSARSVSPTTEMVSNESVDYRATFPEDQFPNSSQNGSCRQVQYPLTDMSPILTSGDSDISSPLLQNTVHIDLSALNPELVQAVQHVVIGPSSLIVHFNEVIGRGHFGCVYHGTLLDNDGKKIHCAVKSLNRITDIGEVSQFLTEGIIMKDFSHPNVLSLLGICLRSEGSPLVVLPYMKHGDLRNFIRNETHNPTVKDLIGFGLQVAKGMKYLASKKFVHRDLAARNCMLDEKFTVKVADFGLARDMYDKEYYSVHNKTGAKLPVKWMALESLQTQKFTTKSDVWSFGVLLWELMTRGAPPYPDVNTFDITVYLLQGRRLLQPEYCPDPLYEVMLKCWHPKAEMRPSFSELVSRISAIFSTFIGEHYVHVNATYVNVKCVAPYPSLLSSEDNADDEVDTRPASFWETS

In the case of COc1ncc(-c2ccc3ncc(C(=O)NCCN4CCOCC4)n3c2)cc1NS(=O)(=O)c1ccc(F)cc1F [DFX117, 6-(5-(2,4-difluorophenylsulfonamido)-6-methoxypyridin-3-yl)-N-(2-morpholinoethyl) imidazo[1,2-a]pyridine-3-carboxamide], the “Growth inhibitory activity compared with HS-173” value (A549 cells [1]) is reported as “superior to that of HS-173”, the “Growth inhibitory activity compared with HS-173” value (NCI-H1975 cells [2]) is reported as “superior to that of HS-173” and the IC50 [3] is reported as 2.89 µM. For the same compound, the IC50 (c-Met) was 0.0171 µM, the “Population of apoptotic cells (Annexin V positive)” value (A549 cells [4]) was 26.84% and the “Population of apoptotic cells (Annexin V positive)” value (NCI-H1975 cells [5]) was 32.75%. The “Overt toxicity or body weight change” value (A549 xenograft; A549 xenograft, 5, 10 or 20 mg/kg orally daily for 23 days) was “No overt toxicity or body weight change was observed”, the “Excised tumor weights on the termination day” value (A549 xenograft; A549 xenograft, oral daily for 23 days) was “significantly inhibited” and the “Overt toxicity or body weight change” value (NCI-H1975 xenograft; 10 or 20 mg/kg orally daily for 23 days) was “No overt toxicity or body weight change was observed”. For the same compound, the Tumor weights (NCI-H1975 xenograft; oral daily for 23 days) was “significantly inhibited”, the AUC [6] was 3340 ng·h/mL and the Cmax [6] was 4500 ng/mL. For the same compound, the Tmax [6] was 0.3 h, the half-life [6] was 2.1 h and the MRT inf ([6]; read-out: MRTinf_obs) was 2.2 h. The “Phospho-Met level (phospho-RTK array)” value (phospho-Met) was “markedly suppressed”, the Colony formation (A549 cells [7]) was “significantly inhibited” and the Colony formation (NCI-H1975 cells [8]) was “significantly inhibited”.
